Measured values from patent US10934310B2, “Inhibitors of Bruton's tyrosine kinase and method of their use” (JANSSEN PHARMACEUTICA NV, priority 2015, dated 2021).

Each molecule was assayed against unphosphorylated-BTK kinase domain (UP-BTK), GST-tagged human BTK (389-659aa) (Homo sapiens (Human), UniProt Q06187) (assay: BTK Kinase Lanthascreen Binding Assay). Conditions: Lanthascreen binding, 60 minutes incubation; pIC50 = negative log of the IC50 in molar.
Experimental: BTK Kinase Lanthascreen Binding Assay:
A BTK kinase lanthascreen binding assay monitors compound binding to unphosphorylated-BTK kinase domain (UP-BTK), by competing with a fluorescent labeled tracer. […] Data were analyzed using Xlfit™ version 5.3 from ID Business Solutions (Guildford), Microsoft Excel add-in. pIC50 refers to the negative log of the IC50 in molar.

Chain of unphosphorylated-BTK kinase domain (UP-BTK), GST-tagged human BTK (389-659aa) (Q06187 389-659): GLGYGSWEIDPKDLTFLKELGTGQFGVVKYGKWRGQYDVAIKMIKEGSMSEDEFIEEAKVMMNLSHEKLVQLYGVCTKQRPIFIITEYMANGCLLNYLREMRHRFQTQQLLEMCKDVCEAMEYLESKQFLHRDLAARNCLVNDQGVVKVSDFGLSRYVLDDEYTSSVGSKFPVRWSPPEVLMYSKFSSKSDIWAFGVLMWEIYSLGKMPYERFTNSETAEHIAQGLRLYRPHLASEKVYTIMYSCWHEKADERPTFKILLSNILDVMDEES

| BTK_I_binding pIC50 | SMILES |
| --- | --- |
| 6.21 | CC(=O)N[C@@H]1CC[C@H](NC(=O)c2sc3nccc4c3c2NC(=O)N4c2ccc(OC(C)C)cc2C)C1 [Example 454, N-((1S,3R)-3-Acetamidocyclopentyl)-5-(4-isopropoxy-2-methylphenyl)-4-oxo-4,5-dihydro-3H-1-thia-3,5,8-triazaacenaphthylene-2-carboxamide] |
| 5.81 | N[C@@H]1CCCC[C@@H]1NC(=O)c1sc2nccc3c2c1NC(=O)N3c1ccc(Oc2ccccc2)cc1 [Example 457, N-((1S,2R)-2-Aminocyclohexyl)-4-oxo-5-(4-phenoxyphenyl)-4,5-dihydro-3H-1-thia-3,5,8-triazaacenaphthylene-2-carboxamide] |
| 7.53 | C=CC(=O)N[C@H]1CCC[C@@H]1NC(=O)c1sc2nccc3c2c1NC(=O)N3c1ccc(Oc2ccccc2)cc1C [Example 458, N-((1S,2S)-2-Acrylamidocyclopentyl)-5-(2-methyl-4-phenoxyphenyl)-4-oxo-4,5-dihydro-3H-1-thia-3,5,8-triazaacenaphthylene-2-carboxamide] |
| 7.13 | C=CC(=O)N[C@@H]1CCC[C@@H]1NC(=O)c1sc2nccc3c2c1NC(=O)N3c1ccc(Oc2ccccc2)cc1C [Example 459, N-((1S,2R)-2-Acrylamidocyclopentyl)-5-(2-methyl-4-phenoxyphenyl)-4-oxo-4,5-dihydro-3H-1-thia-3,5,8-triazaacenaphthylene-2-carboxamide] |
| 6.78 | Cc1cc(Oc2cccc(COc3ccccc3C#N)c2)ccc1N1C(=O)Nc2c(C(=O)NC3CCCCC3)sc3nccc1c23 [Example 460, 5-(4-(3-((2-Cyanophenoxy)methyl)phenoxy)-2-methylphenyl)-N-cyclohexyl-4-oxo-4,5-dihydro-3H-1-thia-3,5,8-triazaacenaphthylene-2-carboxamide] |
| 6.46 | Cc1cc(Oc2cccc(COc3ccccc3C#N)c2)ccc1N1C(=O)Nc2c(NC(=O)C3CC3)sc3nccc1c23 [Example 461, N-(5-(4-(3-((2-Cyanophenoxy)methyl)phenoxy)-2-methylphenyl)-4-oxo-4,5-dihydro-3H-1-thia-3,5,8-triazaacenaphthylen-2-yl)cyclopropanecarboxamide] |
| 6.33 | Cc1cc(Oc2ccccc2)ccc1N1C(=O)Nc2c(C(=O)NC3CCCCC3)sc3nccc1c23 [Example 462, N-Cyclohexyl-5-(2-methyl-4-phenoxyphenyl)-4-oxo-4,5-dihydro-3H-1-thia-3,5,8-triazaacenaphthylene-2-carboxamide] |
| 6.22 | O=C(NC1CCCCC1)c1sc2nccc3c2c1NC(=O)N3c1ccc(Oc2ccccc2)cc1 [Example 463, N-Cyclohexyl-4-oxo-5-(4-phenoxyphenyl)-4,5-dihydro-3H-1-thia-3,5,8-triazaacenaphthylene-2-carboxamide] |
| 7.25 | C=CC(=O)N[C@H]1CCC[C@H]1NC(=O)c1sc2nccc3c2c1NC(=O)N3c1cnc(Oc2ncccn2)cc1C [Example 465, N-((1R,2S)-2-Acrylamidocyclopentyl)-5-(4-methyl-6-(pyrimidin-2-yloxy)pyridin-3-yl)-4-oxo-4,5-dihydro-3H-1-thia-3,5,8-triazaacenaphthylene-2-carboxamide] |
| 6.52 | C=CC(=O)N[C@H]1CCC[C@H]1NC(=O)c1sc2nccc3c2c1NC(=O)N3c1ccc(Oc2ncccn2)nc1C [Example 468, N-((1R,2S)-2-Acrylamidocyclopentyl)-5-(2-methyl-6-(pyrimidin-2-yloxy)pyridin-3-yl)-4-oxo-4,5-dihydro-3H-1-thia-3,5,8-triazaacenaphthylene-2-carboxamide] |
| 6.20 | C=CC(=O)N[C@H]1CCC[C@H]1NC(=O)c1sc2nccc3c2c1NC(=O)N3c1ccc(Oc2cccnn2)cn1 [Example 476, N-((1R,2S)-2-Acrylamidocyclopentyl)-4-oxo-5-(5-(pyridazin-3-yloxy)pyridin-2-yl)-4,5-dihydro-3H-1-thia-3,5,8-triazaacenaphthylene-2-carboxamide] |
| 6.85 | C=CC(=O)N[C@H]1CCC[C@H]1NC(=O)c1sc2nccc3c2c1NC(=O)N3c1ccc(-n2ccccc2=O)nc1C [Example 477, N-((1R,2S)-2-Acrylamidocyclopentyl)-5-(6′-methyl-2-oxo-2H-[1,2′-bipyridin]-5′-yl)-4-oxo-4,5-dihydro-3H-1-thia-3,5,8-triazaacenaphthylene-2-carboxamide] |
| 7.59 | C=CC(=O)N[C@H]1CCC[C@H]1NC(=O)c1sc2nccc3c2c1NC(=O)N3c1ccc(Oc2ccccn2)cn1 [Example 480, N-((1R,2S)-2-Acrylamidocyclopentyl)-4-oxo-5-(5-(pyridin-2-yloxy)pyridin-2-yl)-4,5-dihydro-3H-1-thia-3,5,8-triazaacenaphthylene-2-carboxamide] |
| 7.33 | C=CC(=O)N[C@H]1CCC[C@H]1NC(=O)c1sc2nccc3c2c1NC(=O)N3c1ccc(Oc2ccc(C)nc2)cn1 [Example 481, N-((1R,2S)-2-Acrylamidocyclopentyl)-5-(5-((6-methylpyridin-3-yl)oxy)pyridin-2-yl)-4-oxo-4,5-dihydro-3H-1-thia-3,5,8-triazaacenaphthylene-2-carboxamide] |
| 7.79 | C=CC(=O)N[C@H]1CCC[C@H]1NC(=O)c1sc2nccc3c2c1NC(=O)N3c1ccc(Oc2cncnc2)cc1C [Example 482, N-((1R,2S)-2-Acrylamidocyclopentyl)-5-(2-methyl-4-(pyrimidin-5-yloxy)phenyl)-4-oxo-4,5-dihydro-3H-1-thia-3,5,8-triazaacenaphthylene-2-carboxamide] |
| 7.49 | C=CC(=O)N[C@H]1CCC[C@H]1NC(=O)c1sc2nccc3c2c1NC(=O)N3c1cnc(Oc2cccc(C)n2)cc1C [Example 483, N-((1R,2S)-2-Acrylamidocyclopentyl)-5-(4-methyl-6-((6-methylpyridin-2-yl)oxy)pyridin-3-yl)-4-oxo-4,5-dihydro-3H-1-thia-3,5,8-triazaacenaphthylene-2-carboxamide] |
| 6.93 | C=CC(=O)N[C@H]1CCC[C@H]1NC(=O)c1sc2nccc3c2c1NC(=O)N3c1ccc(Oc2ncccn2)cn1 [Example 484, N-((1R,2S)-2-Acrylamidocyclopentyl)-4-oxo-5-(5-(pyrimidin-2-yloxy)pyridin-2-yl)-4,5-dihydro-3H-1-thia-3,5,8-triazaacenaphthylene-2-carboxamide] |
| 6.59 | C=CC(=O)N[C@H]1CCC[C@H]1NC(=O)c1sc2nccc3c2c1NC(=O)N3c1ccc(Oc2cncnc2)cn1 [Example 485, N-((1R,2S)-2-Acrylamidocyclopentyl)-4-oxo-5-(5-(pyrimidin-5-yloxy)pyridin-2-yl)-4,5-dihydro-3H-1-thia-3,5,8-triazaacenaphthylene-2-carboxamide] |
| 7.39 | C=CC(=O)N[C@H]1CCC[C@H]1NC(=O)c1sc2nccc3c2c1NC(=O)N3c1cnc(Oc2cncnc2)cc1C [Example 486, N-((1R,2S)-2-Acrylamidocyclopentyl)-5-(4-methyl-6-(pyrimidin-5-yloxy)pyridin-3-yl)-4-oxo-4,5-dihydro-3H-1-thia-3,5,8-triazaacenaphthylene-2-carboxamide] |
| 6.87 | C=CC(=O)N[C@H]1CCC[C@H]1NC(=O)c1sc2nccc3c2c1NC(=O)N3c1cnc(Oc2ccc(C)nc2)cc1C [Example 487, N-((1R,2S)-2-Acrylamidocyclopentyl)-5-(4-methyl-6-((6-methylpyridin-3-yl)oxy)pyridin-3-yl)-4-oxo-4,5-dihydro-3H-1-thia-3,5,8-triazaacenaphthylene-2-carboxamide] |
| 7.62 | C=CC(=O)N[C@H]1CCC[C@H]1NC(=O)c1sc2nccc3c2c1NC(=O)N3c1cnc(Oc2ccccn2)cc1C [Example 488, N-((1R,2S)-2-Acrylamidocyclopentyl)-5-(4-methyl-6-(pyridin-2-yloxy)pyridin-3-yl)-4-oxo-4,5-dihydro-3H-1-thia-3,5,8-triazaacenaphthylene-2-carboxamide] |

Same assay, conditions: read-out: BTK_I_binding pIC50 (converted)

| IC50 [nM] | SMILES |
| --- | --- |
| > 1000 | CC(C)c1cccc(N2C(=O)Nc3c(C(=O)N[C@@H]4CCC[C@@H]4N)sc4nccc2c34)c1 [Example 455, N-((1R,2S)-2-Aminocyclopentyl)-5-(3-isopropylphenyl)-4-oxo-4,5-dihydro-3H-1-thia-3,5,8-triazaacenaphthylene-2-carboxamide] |
| > 1000 | Cc1cc(OC(C)C)ccc1N1C(=O)Nc2c(C(=O)N[C@@H]3CCC[C@H]3O)sc3nccc1c23 [Example 456, N-((1R,2R)-2-Hydroxycyclopentyl)-5-(4-isopropoxy-2-methylphenyl)-4-oxo-4,5-dihydro-3H-1-thia-3,5,8-triazaacenaphthylene-2-carboxamide] |
| > 1000 | C=CC(=O)N[C@H]1CCCC[C@H]1NC(=O)c1sc2nccc3c2c1NC(=O)N3c1cnc(Oc2cccnn2)cc1C [Example 467, N-((1R,2S)-2-Acrylamidocyclohexyl)-5-(4-methyl-6-(pyridazin-3-yloxy)pyridin-3-yl)-4-oxo-4,5-dihydro-3H-1-thia-3,5,8-triazaacenaphthylene-2-carboxamide] |
| 22.9 | C=CC(=O)N[C@H]1CCC[C@H]1NC(=O)c1sc2nccc3c2c1NC(=O)N3c1ccc(Oc2ccccn2)nc1C [Example 478, N-((1R,2S)-2-Acrylamidocyclopentyl)-5-(2-methyl-6-(pyridin-2-yloxy)pyridin-3-yl)-4-oxo-4,5-dihydro-3H-1-thia-3,5,8-triazaacenaphthylene-2-carboxamide] |
| 28.8 | C=CC(=O)N[C@H]1CCC[C@H]1NC(=O)c1sc2nccc3c2c1NC(=O)N3c1ccc(Oc2cccc(C)n2)cn1 [Example 479, N-((1R,2S)-2-Acrylamidocyclopentyl)-5-(5-((6-methylpyridin-2-yl)oxy)pyridin-2-yl)-4-oxo-4,5-dihydro-3H-1-thia-3,5,8-triazaacenaphthylene-2-carboxamide] |
